{"source": "patent US12115229B2", "about": "“Nanosystems for controlled transport of active molecules for diagnostic, prognostic and therapeutic purposes” (FIDIA FARMACEUTICI S.P.A., priority 2015, dated 2024)", "tested_on": "tumour cell line 4T1 (breast cancer)", "experiment": "In vitro MTT cytotoxicity assay, 4T1", "format": "cell-based", "protocol": "The cytotoxic activity of Doxo-Hyalusphere was tested on tumour cell lines 4T1 (breast cancer) and A549 (lung cancer), using the in vitro MTT assay.\nFor the purpose of the test, cell line 4T1 was cultured in RPMI medium (Gibco) and A549 in DMEM (Gibco). 10% FBS (foetal bovine serum, Gibco), 1% L-glutamine (Gibco) and 1% penicillin/streptomycin (Gibco) were added to both culture media at the temperature of 37° C. in the presence of 5% CO2.\nThe cells were plated in 24-well microplates (Nunc) (50000 cells per well in 500 μl of medium). After 12 hours, 100 μl of culture medium containing the various conditions studied was added to each well: • 1) Nanoparticles with PEG (PEG-NP); • 2) Nanoparticles with rHyal_Sk (Hyal-NP); • 3) Doxorubicin in solution (Free DOX); • 4) Doxorubicin bonded to nanoparticles (DOX-NP) • 5) Doxo-HyaluSpheres (DOX-Hyal-NP),\nThe nanoparticle concentrations were established at 40000 per cell, and the plates were incubated for 24 and 96 hours. […]\nMetabolic activity was evaluated after 30 minutes by reading the optical density (OD) with an ELISA Reader (Bio-Rad) spectrophotometer at the wavelength of 570 nm. […] The fraction of viable cells was determined on the basis of the ratio between the mean optical density of the treated samples and that of the untreated control sample."}
{"smiles": "COc1cccc2c1C(=O)c1c(O)c3c(c(O)c1C2=O)C[C@@](O)(C(=O)CO)C[C@@H]3O[C@H]1C[C@H](N)[C@H](O)[C@H](C)O1", "note": "[Free-DOX, Doxorubicin]", "values": [{"measurement": "tumour cell survival compared with the doxorubicin nanosystems", "setting": "free doxorubicin 0.75 μg/mL", "value": "Quantitatively identical results"}, {"measurement": "cell death", "setting": "free drug equivalent to 3 nM (1.6 ng/mL), 24 and 96 hours", "value": "did not lead to cell death"}]}
